{"source": "patent US6649647B1", "about": "“Trioxane derivatives” (priority 1998, dated 2003)", "type_in_all_cases": "cell-based", "key": {"[1]": {"test_system": "Rat 6 subclone of the immortalized F2408 embryo cell line (R6)", "experiment": "Screening for cytotoxicity, cell count by Coulter Counter, R6 cells", "details": "for LD50 (Day 3) R6: day 3 after addition; for LD50 (Day 6) R6: day 6 after addition", "description": "(§1) Compounds of the invention were screened against Rat 6 subclone of the immortalized F2408 embryo cell line, and Rat 6 (R6T24) cells transfected and transformed by a c-H-ras oncogene. The screening involved placing the R6 and R6T24 cell lines plated at 10^3 cells per well into a 12-well microtiter culture plate for 24 hours. The compounds were added at final concentrations from 0.1-100 μM, and cells were trypsized and counted by Coulter Counter at day 3 and day 6 after the addition. Untreated cells were assigned a survival value of 100%."}, "[2]": {"test_system": "Rat 6 (R6T24) cells transfected and transformed by a c-H-ras oncogene", "experiment": "Screening for cytotoxicity, cell count by Coulter Counter, R6T24 cells", "details": "R6T24 cell line; for LD50 (Day 3) R6T24: day 3 after addition; for LD50 (Day 6) R6T24: day 6 after addition", "description": "as §1"}, "[3]": {"test_system": "human colon cancer cell line HT 29", "experiment": "Growth inhibition assay (MTT), HT 29", "details": "Table VI, 6 days incubation", "description": "(§2) As another example of evaluation of cytotoxicity, cancer cell lines were also used for a growth inhibition assay. The human colon cancer cell lines SW 480 and HT 29 and the murine melanoma cell line B16F10 were used. […] After confluent growth, the cells were trypsinated and resuspended in RPMI plus 10% FCS to a cell concentration of 50000 cells per ml in case of colon cancer cell lines and 20000 in case of B16F10. 100 μl of this cell suspension were transferred in each well of a 96 well microtiter plate and incubated for 1 day at 37° C. in a CO2-incubator. Subsequently, further 100 μl RPMI medium and 1 μl of a DMSO solution, containing the artemisinin derivatives were added. The growth inhibition was estimated after 6 days incubation at 36° C. using the MTT assay.\n(§3) 25 μl MTT solution (3-(4,5-dimethylthiazol-2-yl)-2,5-diphenyltetrazolium-bromid) of a starting concentration of 5 mg/ml H2O were added and incubated at 37° C. for 5 h. Subsequently, 100 μl iso-propanol per well were added. After 15 min incubation 100 μl H2O were added. After 30 min shaking, the extinction was measured at 595 nm using a ELISA-Multiplate Reader."}, "[4]": {"test_system": "murine melanoma cell line B16F10", "experiment": "Growth inhibition assay (MTT), B16F10", "details": "Table VI, 6 days incubation", "description": "as §2, §3"}, "[5]": {"test_system": "human colon cancer cell line SW 480", "experiment": "Growth inhibition assay (MTT), SW 480", "details": "Table VI, 6 days incubation", "description": "as §2, §3"}}, "data": [{"smiles": "CC1CCC2C(CN(Cc3ccccc3)Cc3ccccc3)C(=O)OC3OC4(C)CCC1C32OO4", "note": "(stereo not shown) [Example 17, 9-(N,N-dibenzylaminomethyl)artemisinin]", "values": [{"measurement": "LD50 (Day 3) R6", "setting": "[1]; Table V", "value": 1.57, "unit": "µM"}, {"measurement": "LD50 (Day 6) R6", "setting": "[1]; Table V", "value": 2.58, "unit": "µM"}, {"measurement": "LD50 (Day 3) R6T24", "setting": "[2]; Table V", "value": 1.81, "unit": "µM"}, {"measurement": "LD50 (Day 6) R6T24", "setting": "[2]; Table V", "value": 0.54, "unit": "µM"}]}, {"smiles": "CC1CCC2[C@@H](C)C(=O)OC3O[C@]4(C)CCC1C32OO4", "note": "(stereo partly shown) [Artemisinin, artemisinin, reference compound]", "values": [{"measurement": "LD50 (Day 3) R6", "setting": "[1]; Table V", "value": ">100.00", "unit": "µM"}, {"measurement": "LD50 (Day 6) R6", "setting": "[1]; Table V", "value": 4.08, "unit": "µM"}, {"measurement": "LD50 (Day 3) R6", "setting": "[1]; Table VA", "value": ">100.00", "unit": "µM"}, {"measurement": "LD50 (Day 6) R6", "setting": "[1]; Table VA", "value": 4.08, "unit": "µM"}, {"measurement": "LD50 (Day 3) R6T24", "setting": "[2]; Table V", "value": 3.09, "unit": "µM"}, {"measurement": "LD50 (Day 6) R6T24", "setting": "[2]; Table V", "value": 1.75, "unit": "µM"}, {"measurement": "LD50 (Day 3) R6T24", "setting": "[2]; Table VA", "value": 3.49, "unit": "µM"}, {"measurement": "LD50 (Day 6) R6T24", "setting": "[2]; Table VA", "value": 1.75, "unit": "µM"}]}, {"smiles": "Cc1cc(C)c(C2O[C@@H]3O[C@@]4(C)CC[C@H]5[C@H](C)CC[C@@H]([C@H]2C)[C@@]35OO4)c(C)c1", "note": "(stereo partly shown) [Example 60]", "values": [{"measurement": "LD50 HT 29", "setting": "[3]", "value": 300, "unit": "nM"}, {"measurement": "LD50 B16F18", "setting": "[4]", "value": 250, "unit": "nM"}, {"measurement": "LD50 SW 480", "setting": "[5]", "value": 150, "unit": "nM"}]}, {"smiles": "CCOC(=O)CCC1C(=O)OC2OC3(C)CCC4C(C)CCC1C24OO3", "note": "(stereo not shown) [Example 19, 9-[2-(ethoxycarbonyl)ethyl]artemisinin]", "values": [{"measurement": "LD50 (Day 3) R6", "setting": "[1]; Table V", "value": 52.00, "unit": "µM"}, {"measurement": "LD50 (Day 6) R6", "setting": "[1]; Table V", "value": 59.00, "unit": "µM"}, {"measurement": "LD50 (Day 3) R6T24", "setting": "[2]; Table V", "value": 28.12, "unit": "µM"}, {"measurement": "LD50 (Day 6) R6T24", "setting": "[2]; Table V", "value": 24.95, "unit": "µM"}]}, {"smiles": "C[C@@H]1CC[C@H]2[C@@H](C)C(Nc3ccc(Br)cc3)O[C@@H]3O[C@@]4(C)CC[C@@H]1[C@]32OO4", "note": "(stereo partly shown) [Example 33]", "values": [{"measurement": "LD50 HT 29", "setting": "[3]", "value": 500, "unit": "nM"}, {"measurement": "LD50 B16F18", "setting": "[4]", "value": 200, "unit": "nM"}, {"measurement": "LD50 SW 480", "setting": "[5]", "value": 60, "unit": "nM"}]}, {"smiles": "CC1CCC2C(C)C(OCc3cccc(F)c3)OC3OC4(C)CCC1C32OO4", "note": "(stereo not shown) [Example 78]", "values": [{"measurement": "LD50 HT 29", "setting": "[3]", "value": 1500, "unit": "nM"}, {"measurement": "LD50 B16F18", "setting": "[4]", "value": 200, "unit": "nM"}, {"measurement": "LD50 SW 480", "setting": "[5]", "value": 250, "unit": "nM"}]}, {"smiles": "COc1cc(OC)c(C2OC3OC4(C)CCC5C(C)CCC(C2C)C35OO4)c(OC)c1", "note": "(mixture of isomers) [Example 27]", "values": [{"measurement": "LD50 (Day 3) R6", "setting": "[1]; Table V", "value": 0.57, "unit": "µM"}, {"measurement": "LD50 (Day 6) R6", "setting": "[1]; Table V", "value": 1.10, "unit": "µM"}, {"measurement": "LD50 (Day 3) R6", "setting": "[1]; Table VA", "value": 0.57, "unit": "µM"}, {"measurement": "LD50 (Day 6) R6", "setting": "[1]; Table VA", "value": 1.10, "unit": "µM"}, {"measurement": "LD50 (Day 3) R6T24", "setting": "[2]; Table V", "value": 0.67, "unit": "µM"}, {"measurement": "LD50 (Day 6) R6T24", "setting": "[2]; Table V", "value": 0.26, "unit": "µM"}, {"measurement": "LD50 (Day 3) R6T24", "setting": "[2]; Table VA", "value": 0.67, "unit": "µM"}, {"measurement": "LD50 (Day 6) R6T24", "setting": "[2]; Table VA", "value": 0.26, "unit": "µM"}]}, {"smiles": "C[C@@H]1CC[C@H]2[C@@H](C)C(NCc3ccccc3)O[C@@H]3O[C@@]4(C)CC[C@@H]1[C@]32OO4", "note": "(stereo partly shown) [Example 36]", "values": [{"measurement": "LD50 HT 29", "setting": "[3]", "value": 400, "unit": "nM"}, {"measurement": "LD50 B16F18", "setting": "[4]", "value": 50, "unit": "nM"}, {"measurement": "LD50 SW 480", "setting": "[5]", "value": 60, "unit": "nM"}]}, {"smiles": "C[C@H]1[C@H](OC(=O)CCC(=O)O)O[C@@H]2O[C@@]3(C)CC[C@H]4[C@H](C)CC[C@@H]1[C@@]24OO3", "note": "[Artesunate, artesunate, reference compound]", "values": [{"measurement": "LD50 (Day 3) R6", "setting": "[1]; Table V", "value": 2.80, "unit": "µM"}, {"measurement": "LD50 (Day 6) R6", "setting": "[1]; Table V", "value": 2.06, "unit": "µM"}, {"measurement": "LD50 (Day 3) R6", "setting": "[1]; Table VA", "value": 2.80, "unit": "µM"}, {"measurement": "LD50 (Day 6) R6", "setting": "[1]; Table VA", "value": 2.08, "unit": "µM"}, {"measurement": "LD50 (Day 3) R6T24", "setting": "[2]; Table V", "value": 1.77, "unit": "µM"}, {"measurement": "LD50 (Day 6) R6T24", "setting": "[2]; Table V", "value": 1.04, "unit": "µM"}, {"measurement": "LD50 (Day 3) R6T24", "setting": "[2]; Table VA", "value": 1.77, "unit": "µM"}, {"measurement": "LD50 (Day 6) R6T24", "setting": "[2]; Table VA", "value": 1.04, "unit": "µM"}]}, {"smiles": "CC1CC[C@H]2[C@@H](C)C(=O)NC3O[C@]4(C)CCC1C32OO4", "note": "(stereo partly shown) [Example 14, 11-azaartemisinin]", "values": [{"measurement": "LD50 (Day 3) R6", "setting": "[1]; Table V", "value": ">50.00", "unit": "µM"}, {"measurement": "LD50 (Day 6) R6", "setting": "[1]; Table V", "value": 1.22, "unit": "µM"}, {"measurement": "LD50 (Day 3) R6", "setting": "[1]; Table VA", "value": ">50", "unit": "µM"}, {"measurement": "LD50 (Day 6) R6", "setting": "[1]; Table VA", "value": 1.22, "unit": "µM"}, {"measurement": "LD50 (Day 3) R6T24", "setting": "[2]; Table V", "value": 0.18, "unit": "µM"}, {"measurement": "LD50 (Day 6) R6T24", "setting": "[2]; Table V", "value": 0.09, "unit": "µM"}, {"measurement": "LD50 (Day 3) R6T24", "setting": "[2]; Table VA", "value": 0.18, "unit": "µM"}, {"measurement": "LD50 (Day 6) R6T24", "setting": "[2]; Table VA", "value": 0.09, "unit": "µM"}]}, {"smiles": "CO[C@H]1O[C@@H]2O[C@@]3(C)CC[C@H]4[C@H](C)CC[C@@H]([C@H]1C)[C@@]24OO3", "note": "[Artemether, artemether, reference compound]", "values": [{"measurement": "LD50 (Day 3) R6", "setting": "[1]; Table V", "value": ">100.00", "unit": "µM"}, {"measurement": "LD50 (Day 6) R6", "setting": "[1]; Table V", "value": 1.0, "unit": "µM"}, {"measurement": "LD50 (Day 3) R6", "setting": "[1]; Table VA", "value": ">100", "unit": "µM"}, {"measurement": "LD50 (Day 6) R6", "setting": "[1]; Table VA", "value": 0.6, "unit": "µM"}, {"measurement": "LD50 (Day 3) R6T24", "setting": "[2]; Table V", "value": ">100.00", "unit": "µM"}, {"measurement": "LD50 (Day 6) R6T24", "setting": "[2]; Table V", "value": 1.8, "unit": "µM"}, {"measurement": "LD50 (Day 3) R6T24", "setting": "[2]; Table VA", "value": ">100", "unit": "µM"}, {"measurement": "LD50 (Day 6) R6T24", "setting": "[2]; Table VA", "value": 0.71, "unit": "µM"}]}, {"smiles": "C[C@@H]1CC[C@H]2[C@@H](C)C(OC(=O)c3c4ccccc4nc4ccccc34)O[C@@H]3O[C@@]4(C)CC[C@@H]1[C@]32OO4", "note": "(stereo partly shown) [Example 65]", "values": [{"measurement": "LD50 (Day 3) R6", "setting": "[1]; Table V", "value": 2.73, "unit": "µM"}, {"measurement": "LD50 (Day 6) R6", "setting": "[1]; Table V", "value": 2.52, "unit": "µM"}, {"measurement": "LD50 (Day 3) R6T24", "setting": "[2]; Table V", "value": 3.21, "unit": "µM"}, {"measurement": "LD50 (Day 6) R6T24", "setting": "[2]; Table V", "value": 1.60, "unit": "µM"}]}, {"smiles": "CC[C@@]1(O)C(=O)OCc2c1cc1n(c2=O)Cc2cc3ccccc3nc2-1", "note": "[CAMPTOTHECIN, reference compound]", "values": [{"measurement": "LD50 HT 29", "setting": "[3]", "value": 4, "unit": "nM"}, {"measurement": "LD50 B16F18", "setting": "[4]", "value": 30, "unit": "nM"}, {"measurement": "LD50 SW 480", "setting": "[5]", "value": 9, "unit": "nM"}]}]}
